Structures are written as SMILES.

The first test relates to circBRIP1 in HCT116 cells. Put plainly: DHX9 circBRIP1 cellular target engagement SYBR Green assay (qPCR). The following applies: Homo sapiens, HCT-116, circBRIP1, HCT116 cells; SyBr assay (marked ^+); read-out: DHX9 Cellular Target Engagement EC50. In kind it is cell-based. Background: Quantitative PCR measures a nucleic acid by following its amplification.
In the case of `CS(=O)(=O)Nc1cc(F)cc(NC(=O)c2cc(-c3cccnc3)cs2)c1` [Example 105, N-(3-fluoro-5-(methylsulfonamido)phenyl)-4-(pyridin-3-yl)thiophene-2-carboxamide], the concentration for a half-maximal effect (EC50) worked out at 8330 nM. The same measure, in the same setting: then `CS(=O)(=O)Nc1cc(Cl)cc(NC(=O)c2cc(-c3ccccc3O)cs2)c1` [Example 106], with 414 nM; and `CS(=O)(=O)Nc1cc(Cl)cc(NC(=O)c2cc(-c3cccc(F)c3)cs2)c1` [Example 108], with 6650 nM; and `Cn1cc(C(=O)Nc2cc(Cl)cc(NS(C)(=O)=O)c2)cc1-c1ccccc1` [Example 109], with 437 nM.

As to `CCS(=O)(=O)Nc1cc(Cl)cc(NC(=O)c2cc(-c3cccnc3)cs2)c1` [Example 110], the 50% effective concentration (EC50) turned out to be 2710 nM. On to `CS(=O)(=O)Nc1cc(F)cc(NC(=O)c2cc(-c3ccccn3)cs2)c1` [Example 112, N-(3-fluoro-5-(methylsulfonamido)phenyl)-4-(pyridin-2-yl)thiophene-2-carboxamide], for which the concentration giving a half-maximal response (EC50) came out at 627 nM. The same measure, in the same setting: then `CCS(=O)(=O)Nc1cc(F)cc(NC(=O)c2cc(-c3ccccn3)cs2)c1` [Example 113], with 7440 nM; and `CS(=O)(=O)Nc1cc(F)cc(NC(=O)c2cc(-c3ccccc3O)cs2)c1` [Example 114], with 1480 nM. In the case of `CS(=O)(=O)Nc1cc(Cl)cc(NC(=O)c2cc(-c3cccnc3)cs2)c1` [Example 116, N-(3-chloro-5-(methylsulfonamido)phenyl)-4-(pyridin-3-yl)thiophene-2-carboxamide], the EC50 came out at 734 nM. On the same count and under the same terms, then `CS(=O)(=O)Nc1cc(Cl)cc(NC(=O)c2cccc(-n3cccn3)c2)c1` [Example 117], with 3870 nM; and `CS(=O)(=O)Nc1cc(Br)cc(NC(=O)c2cccc(-n3cccn3)c2)c1` [Example 118], with 2930 nM; and `CS(=N)(=O)Nc1cc(Br)cc(NC(=O)c2cc(-c3ccccn3)cs2)c1` (centres unmarked) [Example 121, N-(3-bromo-5-(methylsulfonoamidimidamido)phenyl)-4-(pyridin-2-yl)thiophene-2-carboxamide], with 5430 nM. For the compound `Cc1cccnc1-c1csc(C(=O)Nc2cc(Br)cc(NS(C)(=N)=O)c2)c1` (centres unmarked) [Example 122], the EC50 is 1290 nM. Same read-out and setting: the figure for `Cc1sc(C(=O)Nc2cc(Br)cc(NS(C)(=N)=O)c2)cc1-c1ccccn1` (centres unmarked) [Example 123] is 6590 nM; for `CS(=O)(=O)Nc1cc(Cl)cc(NC(=O)c2csc(-c3ccccc3)c2)c1` [Example 124, N-(3-chloro-5-(methylsulfonamido)phenyl)-5-phenylthiophene-3-carboxamide] it is 5140 nM; for `CS(=O)(=O)Nc1cc(Cl)cc(NC(=O)c2coc(-c3ccccc3)c2)c1` [Example 125] it is 16100 nM. Same read-out and setting: the figure for `CS(=O)(=O)Nc1cc(Cl)cc(NC(=O)c2cnn(CCCO)c2)c1` [Example 126, N-(3-chloro-5-(methylsulfonamido)phenyl)-1-(3-hydroxypropyl)-1H-pyrazole-4-carboxamide] is over 10000 nM.

Turning to `CS(=O)(=O)Nc1cc(Cl)cc(NC(=O)c2cnn(CCO)c2)c1` [Example 127], the EC50 is over 10000 nM. For the compound `CS(=O)(=O)Nc1cc(Cl)cc(NC(=O)c2cnn(C3CC4(COC4)C3)c2)c1` [Example 128], the half-maximal effective concentration (EC50) is over 10000 nM. Take `CS(=O)(=O)Nc1cc(Cl)cc(NC(=O)c2cnn(C3CCOCC3)c2)c1` [Example 131, N-(3-chloro-5-(methylsulfonamido)phenyl)-1-(tetrahydro-2H-pyran-4-yl)-1H-pyrazole-4-carboxamide]: the EC50 was over 10000 nM. Turning to `CC(C)(C)OC(=O)N1CCC(n2cc(C(=O)Nc3cc(Cl)cc(NS(C)(=O)=O)c3)cn2)CC1` [Example 136], the 50% effective concentration (EC50) worked out at 6410 nM.

As for `Cn1nc(C(=O)Nc2cc(Cl)cc(NS(C)(=O)=O)c2)cc1-c1ccccc1OCc1ccccc1` [Example 138, 5-(2-(benzyloxy)phenyl)-N-(3-chloro-5-(methylsulfonamido)phenyl)-1-methyl-1H-pyrazole-3-carboxamide], the concentration giving a half-maximal response (EC50) is over 10000 nM. On the same count and under the same terms, the figure for `Cn1nc(C(=O)Nc2cc(Cl)cc(NS(C)(=O)=O)c2)cc1-c1ccccn1` [Example 140] is over 10000 nM.

Consider `Cn1nc(-c2ccccn2)cc1C(=O)Nc1cc(Cl)cc(NS(C)(=O)=O)c1` [Example 141], for which the EC50 is over 10000 nM. Same read-out and setting: the figure for `CC(c1ccccc1)n1cc(C(=O)Nc2cc(Cl)cc(NS(C)(=O)=O)c2)cn1` (centres unmarked) [Example 142, N-(3-chloro-5-(methylsulfonamido)phenyl)-1-(1-phenylethyl)-1H-pyrazole-4-carboxamide] is over 10000 nM; for `CC(C)(C)OC(=O)N1CC2(CC(n3cc(C(=O)Nc4cc(Cl)cc(NS(C)(=O)=O)c4)cn3)C2)C1` [Example 144, tert-butyl 6-(4-((3-chloro-5-(methylsulfonamido)phenyl)carbamoyl)-1H-pyrazol-1-yl)-2-azaspiro[3.3]heptane-2-carboxylate] it is 5850 nM; for `CS(=O)(=O)Nc1cc(Cl)cc(NC(=O)c2cnn(C3CCNCC3)c2)c1` [Example 145, N-(3-chloro-5-(methylsulfonamido)phenyl)-1-(piperidin-4-yl)-1H-pyrazole-4-carboxamide] it is over 10000 nM. With `CS(=O)(=O)Nc1cc(Cl)cc(NC(=O)c2cnn(C3CC4(CNC4)C3)c2)c1` [Example 146], the half-maximal effective concentration (EC50) is over 10000 nM. `CS(=O)(=O)Nc1cc(Cl)cc(NC(=O)c2cnn(-c3cc(N4CCNCC4)ccn3)c2)c1` [Example 147]: the EC50 stood at 834 nM.

As for `CC(=O)N1CCN(c2ccnc(-n3cc(C(=O)Nc4cc(Cl)cc(NS(C)(=O)=O)c4)cn3)c2)CC1` [Example 148, 1-[4-(4-acetylpiperazin-1-yl)pyridin-2-yl]-N-(3-chloro-5-methanesulfonamidophenyl)-1H-pyrazole-4-carboxamide], the concentration giving a half-maximal response (EC50) is 4340 nM. On the same count and under the same terms, the figure for `CC(C)C(=O)N1CCN(c2ccc(-n3cc(C(=O)Nc4cc(Cl)cc(NS(C)(=O)=O)c4)cn3)nc2)CC1` [Example 149, N-(3-chloro-5-(methylsulfonamido)phenyl)-1-(5-(4-isobutyrylpiperazin-1-yl)pyridin-2-yl)-1H-pyrazole-4-carboxamide] is 1800 nM; for `CS(=O)(=O)Nc1cc(Cl)cc(NC(=O)c2cnn([C@H]3CC[C@@H](O)CC3)c2)c1` [Example 151, N-(3-chloro-5-(methylsulfonamido)phenyl)-1-((1s,4s)-4-hydroxycyclohexyl)-1H-pyrazole-4-carboxamide] it is over 10000 nM.

In the case of `Cn1cc(C(=O)Nc2cc(Cl)cc(NS(C)(=O)=O)c2)nc1-c1ccccc1` [Example 155, N-(3-chloro-5-(methylsulfonamido)phenyl)-1-methyl-2-phenyl-1H-imidazole-4-carboxamide], the concentration giving a half-maximal response (EC50) worked out at 3610 nM. Consider `Cc1cccnc1-c1nc(C(=O)Nc2cc(Cl)cc(NS(C)(=O)=O)c2)cn1C` [Example 156], for which the EC50 is over 10000 nM.

`Cn1cc(C(=O)Nc2cc(Cl)cc(NS(C)(=O)=O)c2)cc1N1CCCCC1=O` [Example 158, N-(3-chloro-5-(methylsulfonamido)phenyl)-1-methyl-5-(2-oxopiperidin-1-yl)-1H-pyrrole-3-carboxamide]: the EC50 came to 1290 nM.

Consider `CS(=O)(=O)Nc1cc(Br)cc(NC(=O)c2cnn(-c3ccccc3CO)c2)c1` [Example 161, N-(3-bromo-5-(methylsulfonamido)phenyl)-1-(2-(hydroxymethyl)phenyl)-1H-pyrazole-4-carboxamide], for which the EC50 stood at 1420 nM. Turning to `CS(=O)(=O)Nc1cc(Br)cc(NC(=O)c2cnn(-c3ncccc3N)c2)c1` [Example 162, 1-(3-aminopyridin-2-yl)-N-(3-bromo-5-(methylsulfonamido)phenyl)-1H-pyrazole-4-carboxamide], the concentration giving a half-maximal response (EC50) was determined as 138 nM. On the same count and under the same terms, the figure for `CS(=O)(=O)Nc1cc(Cl)cc(NC(=O)c2cc(C(=O)Nc3ccccc3)cs2)c1` [Example 166, N2-(3-chloro-5-(methylsulfonamido)phenyl)-N4-phenylthiophene-2,4-dicarboxamide] is 2390 nM. Same read-out and setting: then `CCS(=O)(=O)Nc1cc(Cl)cc(NC(=O)c2cc(-c3ncccn3)n(C)c2)c1` [Example 173, N-(3-chloro-5-(ethylsulfonamido)phenyl)-1-methyl-5-(pyrimidin-2-yl)-1H-pyrrole-3-carboxamide], with 118 nM. For `CS(=O)(=O)Nc1cc(Cl)cc(NC(=O)c2cnn(-c3ncccc3OCc3cccc(O)c3)c2)c1` [Example 179], the EC50 stood at 997 nM. On the same count and under the same terms, the figure for `CS(=O)(=O)Nc1cc(Cl)cc(NC(=O)c2cnn(-c3ccc(N4CCOCC4=O)cn3)c2)c1` [Example 180] is 1200 nM. On to `CS(=O)(=O)Nc1cc(Cl)cc(NC(=O)c2cc(CN)n(-c3ccccn3)c2)c1` [Example 181], for which the EC50 came to 2090 nM. Same read-out and setting: the figure for `CS(=O)(=O)Nc1cc(Cl)cc(NC(=O)c2cnn(C3CCOC3)c2)c1` (centres unmarked) [Example 182] is over 10000 nM.

With `CN1CCN(c2cnc(-n3cc(C(=O)Nc4cc(Cl)cc(NS(C)(=O)=O)c4)cn3)nc2)CC1=O` [Example 183], the 50% effective concentration (EC50) was over 10000 nM.

`CN1CCN(c2cnc(-n3cc(C(=O)Nc4cc(Cl)cc(NS(C)(=O)=O)c4)cn3)cn2)CC1=O` [Example 184]: the EC50 was over 10000 nM. Consider `CS(=O)(=O)Nc1cc(Cl)cc(NC(=O)c2cnn(-c3ncccc3OCc3cncnc3)c2)c1` [Example 188], for which the EC50 came out at 1460 nM. With `CS(=O)(=O)Nc1cc(Cl)cc(NC(=O)c2cnn(-c3ncccc3OCc3ccccc3F)c2)c1` [Example 189], the EC50 is 308 nM. For `CS(=O)(=O)Nc1cc(Cl)cc(NC(=O)c2cnn(-c3ccc(C4CCOCC4)cn3)c2)c1` [Example 190], the concentration for a half-maximal effect (EC50) is 373 nM.

The test is the same for the next values; noted with them: Homo sapiens, HCT-116, read-out: DHX9 Cellular Target Engagement EC50.
In the case of `CS(=O)(=O)Nc1cc(Cl)cc(NC(=O)c2cnn(-c3ncccc3COc3ccccc3)c2)c1` [Example 167, N-(3-chloro-5-(methylsulfonamido)phenyl)-1-(3-(phenoxymethyl)pyridin-2-yl)-1H-pyrazole-4-carboxamide], the half-maximal effective concentration (EC50) worked out at 1750 nM.

Turning to `CS(=O)(=O)Nc1cc(Cl)cc(NC(=O)c2cnn(-c3ncccc3NCc3ccccc3)c2)c1` [Example 168, 1-(3-(benzylamino)pyridin-2-yl)-N-(3-chloro-5-(methylsulfonamido)phenyl)-1H-pyrazole-4-carboxamide], the concentration giving a half-maximal response (EC50) came out at 2130 nM.

For orientation: EC50 means the concentration at which the effect is half-maximal.

The record behind these values is US12162867B2, “Inhibitors of RNA helicase DHX9 and uses thereof” (ACCENT THERAPEUTICS, INC., priority 2022, dated 2024).
